Assays:
SAS cells [1] = assay: Fluorescence-based peptide binding assay (confocal microscopy); assay type: cell-based, human; details: 50 ng/μl labeled peptide, 37 °C; for Cell uptake: fluorescent signal in cytoplasm: one hour and later
Method: Figure 1 Evaluation of peptide binding activity to SAS cells. (a) IF analysis of F7 peptide and SP peptide binding to SAS cells. […] Red: Lissamine Rhodamine labeled F7 peptide, Green: FITC labeled SP peptide, Blue: DAPI; BF, bright field; Scale bar, 10 μm. (b) The kinetics of F7 peptide binding to SAS-EGFP-Fluc cells. Cells were incubated in the presence of 50 ng/μl peptides at 37 °C for the indicated periods of time. (c) The kinetics of SP peptide binding to SAS-E2-crimson-P2A::ttksr39 cells at indicated time points.
SAS-EGFP-Fluc and SAS-E2-crimson-P2A::ttksr39 were seeded on 8-well chamber slides and incubated with fluorescein labeled F7 peptide and SP peptide respectively for the different time points (0, 0.25, 0.5, 1, 2, 4, 8, 12 and 24 h). HEK293 cell lines without expression of vimentin and nucleolin served as a negative control for the specificity of peptides. After removal of the medium and a PBS rinse, the cells were fixed with 3.7% paraformaldehyde for 10 min followed by PBS washing for 3 times. Subsequently, all slides were mounted with VECTASHIELD Mounting Medium with DAPI (cat. H-1200, Vector Labs, Burligame, CA, USA) and covered with cover glasses before visualization under a laser-scanning microscope (Zeiss LSM 880, Jena, Germany) with Zen Blue software (ZEISS, Jena, Germany).

[2] = system: SAS spheres expressing CD44; assay: Peptide binding to tumor spheres (confocal microscopy); assay type: cell-based, human; details: fluorescein-labeled peptides, 24 h incubation
Source text: Figure 2 Expression of CSC markers corresponding to peptide binding. (a) Phase-contrast photomicrographs of the spheres cultured from SAS-E2-crimson-P2A::ttksr39 cell line using the ultra-low attachment plate. Right panel: adherent cells. magnification, 100×. (b) ICC results showing the expression of representative CSC marker, CD44 and EMT markers, vimentin and nucleolin in spheres (upper panel) and adherent cells (lower panel). E-cadherin is an epithelial cell marker. (c) The peptide binding to tumor spheres which highly expressed CD44. The arrow indicates the presence of F7 and SP peptide. Red: Lissamine Rhodamine labeled F7 peptide, Green: FITC labeled SP peptide, Blue: DAPI; Scale bar, 20 μm. (d) Comparison of peptides binding to spheres and adherent cells. Yellow: colocalization.
SAS cells were seeded in a 6-well cell culture plate with ultra-low attachment (Corning Costar, Tewksbury, MA, USA) at the density of 1 × 10^5 cells/well and incubated for 3–5 days in a 5% CO2 humidified incubator at 37 °C. All measurements on the SAS spheroids were carried out with a diameter of approximately 0.75 mm. For ICC-IF staining, the spheroids were fixed in 3.7% paraformaldehyde, washed with PBS and permeated with 0.1% Triton X-100 for 10 min before blocking with 20% FBS for 10 min at 37 °C, followed by the incubation with anti-CD44 antibody (GTX102111, GeneTex, Irvine, CA, USA) at 4 °C overnight. […]

EMT-induced SAS cells = assay: Flow cytometry analysis of peptide binding to EMT-induced cells; assay type: cell-based, human; details: 50 ng/μl labeled peptide, 24 h, 37 °C, after Unc0642 and/or IR treatment
Method: Figure 4 Evaluation of peptide binding activity to EMT derived cells induced by Unc0642/IR. After treatment of Unc0642 or radiation, EMT derived cells were incubated for 24 h in the presence of 50 ng/μl of fluorescein-labeled F7 (a) and SP peptide (b) at 37 °C respectively. FACS analysis was performed on gated live cells and light scatter parameters were measured using the 488 nm laser. The dot plot represented the particle size (FSC) versus granularity (SSC) of the cell population. The histogram represented the number of cells from P1 and P2 regions displaying a given fluorescence signal. Right graph: the quantitative analysis in the ratio of fluorescein-labeled peptides binding to SAS cells.
The cells were treated for EMT induction as described above. Then, 50 ng/μl of F7 and SP peptides were added into the culture medium and co-incubated for 24 h. The cells were detached and fixed with 3.7% paraformaldehyde for 15 min followed by resuspension in PBS. FACS analysis was performed on gated live cells using a flow cytometer (Beckman Coulter CytoFLEX, Brea, CA, USA).

SAS xenograft tumor = assay: Peptide binding in tumor after intra-tumoral injection (IF of excised tumor); assay type: in vivo, mouse; details: intra-tumoral injection on day 31, tumors excised after 24 h; Unc0642/IR-treated groups versus control; F7 in SAS-EGFP-Fluc, SP in SAS-wt tumors
Source text: Figure 5 Evaluation of peptide binding ability in SAS xenograft mouse model after the treatment of Unc0642/IR. (a) Schematic diagram for in vivo EMT induction via the treatment of Unc0642 and radiation. (b) Evaluation of the effect of Unc0642/IR in SAS-EGFP-Fluc-bearing mice by optical bioluminescence image. (c) Tumor burden of each group was monitored at indicated time points. Data represent mean ± SD (n = 5–6/group). *p < 0.05, **p < 0.01, ***p < 0.001 by Student’s t-test. ***p = 0.00058, Ctrl versus Unc0642 on day 14; *p = 0.049, Ctrl versus IR on day 18; **p = 0.0023, Ctrl versus IR on day 21; *p = 0.0179, Ctrl versus IR on day 24; *p = 0.036, Ctrl versus Unc0642 + IR on day 24. (d) The body weights of mice were recorded during the period of monitoring. Data are mean ± SD (n = 5–6/group). (e, f) Mice were given an intra-tumoral injection of peptide. At 24 h later, tumor samples were excised and the signal derived from the peptide was observed using confocal microscopy. Representative confocal micrographs of tissue sections immunolabeled with CD44. The arrowheads indicate the presence of F7 and SP peptide. Blue: DAPI. Scale bar, 20 μm. […]

[3] = 37 °C, ref previous studies; cited from earlier work
Source text: Despite the cancer cells captured by F7 or SP peptide were identified as CSCs that expressed CD44, single peptide binding cells (F7+ or SP+) and double peptides binding cells (F7+ /SP+ , as shown in Fig. 2d) were considered as different subpopulations that exist at the different stages of cancer. […] There are several possibilities for these findings. First, the permeability ...

SAS cells [4] = assay: Western blot of EMT/CSC markers after in vitro induction of EMT; assay type: cell-based, human; details: TGF-β1 10 and 20 ng/ml, SAS cells, immunoblotting (Fig. S2)
Method: To induce the EMT of SAS cells, cells were seeded in 60 mm^2 dishes at the density of 1 × 10^6 cells/dish overnight and incubated with 1.25 and 10 μM Unc0642. After 24 h, cells were exposed under 2 Gy and 4 Gy of radiation by a RS2000 Series Biological Irradiator (Rad Source Technologies Inc, Buford, GA, USA) and replaced with fresh Unc0642 containing medium every 24 h. The expression of vimentin and E-cadherin were detected by western blotting.
Cultured cells were placed on ice, washed by ice-cold PBS and lysed using CytoBuster Protein Extraction Reagent (cat. 71,009, Bedford, MA, USA) containing Protease Inhibitor Cocktail Set I (cat. 539131, Millipore, Bedford, MA, USA). Cells were then scraped, collected in Eppendorf tubes and the sonicated for 30 min. The lysate was spun down at 12,000 g for 10 min at 4 °C. The protein content was measured using Bradford reagent (BIO-RAD, Hercules, CA, USA). The equal amounts of protein (40 μg) were separated in SDS-PAGE gels (30% Acrylamide/Bis Solution, 29:1, cat. 1610157, BIO-RAD, Hercules, CA, USA) and transferred to PVDF membranes (cat. NEF1002001PK, Perkin-Elmer life sciences, Boston, MA, USA). For immunoblotting, membranes were cut in terms of the molecular weight range prior to hybridization with primary antibody for vimentin (GTX100619, GeneTex, Irvine, CA, USA), nucleolin (GTX132778, GeneTex, Irvine, CA, USA), E-cadherin (GTX50757, GeneTex, Irvine, CA, USA) and b-actin (GTX109639, GeneTex, Irvine, CA, USA) overnight at 4 °C and then incubated with horseradish peroxidase HRP-conjugate goat anti-rabbit IgG (GeneTex, Irvine, CA, USA). Protein signals were visualized using a LumiFast Chemiluminescence Detection Kit (cat. JT96-K001S, T-Pro Biotechnology, Taiwan). Image capture was performed on an ImageQuant LAS4000 biomolecular image (GE healthcare life, Chicago, IL, USA). The intensities of protein bands were quantitated using ImageJ Gel Analysis program. Quantification of protein expression was performed by Image J. b-actin was used as loading control.

| Binding to CD44 expressing spheres [2] | Substance | Intracellular localisation at 24 h (SAS cells [1]) | Cell uptake: fluorescent signal in cytoplasm (SAS cells [1]) | Peptide binding to EMT-induced SAS cells (FACS) (EMT-induced SAS cells) | Amount of labeled peptide in tumor tissue (SAS xenograft tumor) | Stability in the presence of serum [3] | E-cadherin expression (SAS cells [4]) | Vimentin expression (SAS cells [4]) |
| --- | --- | --- | --- | --- | --- | --- | --- | --- |
| able to bind and detect CSCs | DMPGTVLP [F7 peptide] | remained at the edge of nucleus and no longer moved | appeared in cytoplasm gradually and accumulated with the incubation time | increased with increasing dose of IR and Unc0642 | increased in tumor tissues | high stability |  |  |
| able to bind and detect CSCs | SAHGTSTGVPWP [SP peptide] | remained at the edge of nucleus and no longer moved | appeared in cytoplasm gradually and accumulated with the incubation time | significantly higher in combined Unc0642- and IR-treated SAS cells | increased in tumor tissues | high stability |  |  |
|  | TGF-β1: multifunctional cytokine used to induce EMT |  |  |  |  |  | downregulated the expression of E-cadherin | upregulated the expression of vimentin |
